Reference: publication PMC5447021, “TNF Lectin-Like Domain Restores Epithelial Sodium Channel Function in Frameshift Mutants Associated with Pseudohypoaldosteronism Type 1B” (Frontiers in Immunology, 2017)
“Also recorded” adds a separate entry of the source.

Legend:
[1] = system: αP197fs; assay: Membrane abundance of αP197fs; format: cell-based, human; details: 200 nM, relative to WT control (=1), own control 1.18 ± 0.05, p < 0.01 vs control
Procedure: (§1) Cell surface biotinylation was performed as previously described ([26]). In brief, A549 cells or transiently transfected HEK-293 cells were grown in 10 cm dishes in 37°C, 5% CO2 incubator in DMEM medium supplemented with 5% FBS. […] Medium was aspirated, and then cells were washed twice with 10 ml ice-cold phosphate-buffered saline (PBS), covered with 2.5 mg EZ-Link Sulfo-NHS-SS-Biotin (Thermo Scientific, Rockford, USA), dissolved in 10 ml ice-cold PBS, and incubated at 4°C with gentle agitation for 30 min. Fifty milliliters of quenching solution were added to cells; then cells were scraped in solution and transferred to fresh 50 ml tube. Cell suspension was centrifuged at 500 × g for 3 min. Supernatant was discarded, and 5 ml of Tris-buffered saline (TBS) was added to the cell pellet. The cell pellet was resuspended and centrifuged at 500 × g for 3 min. Supernatant was discarded and cell pellet was resuspended in lysis buffer containing protease inhibitor cocktail (10 µM pepstatin A, 10 µM phenylmethylsulfonyl fluoride, and 10 µM leupeptin) and transferred to fresh 1.5 ml centrifuge tube. Cell pellet was then homogenized on ice by ultrasonication using 1 s bursts and incubated on ice for at least 30 min. Intact cells and nuclei were pelleted by centrifugation at 10,000 × g for 2 min under cooling conditions. […] Exposed films were scanned and quantified using ImageJ (NIH, MD, USA). […]

[2] = system: αS452fs; assay: Membrane abundance of αS452fs; format: cell-based, human; details: 200 nM, relative to WT control (=1), own control 1.11 ± 0.25, p < 0.001 vs control
Procedure: as §1

[3] = system: αL576Xβγ-ENaC; details: cited from earlier work
[4] = system: α-ENaC (WT αβγ-ENaC); details: HEK-293, 5 and 10 min; returns after 1 h; cited from earlier work
[5] = system: ENaC PHA1B point mutants; details: PHA1B point mutants with WT subunits; cited from earlier work
Description: PHA1B is a very rare inherited disease caused by mutations in the genes encoding the α (SCNN1A), β (SCNN1B), or γ (SCNN1G), subunit of ENaC, resulting in defective transepithelial sodium transport ([28]). […] Loss-of-function mutations in ENaC genes translate into the salt-wasting genetic disease PHA1B ([33], [41]). […] Remarkably, amiloride-sensitive currents were restored ...

[6] = system: pathological conditions involving ENaC; details: cited from earlier work

C[C@@H]1NC(=O)CNC(=O)[C@H](CCC(=O)O)NC(=O)[C@@H]2CCCN2C(=O)[C@H]([C@@H](C)O)NC(=O)[C@H](CCC(=O)O)NC(=O)[C@H](CCCNC(=N)N)NC(=O)[C@H](CCC(N)=O)NC(=O)CNC(=O)[C@@H](N)CSSC[C@@H](C(=O)O)NC(=O)[C@H](Cc2ccc(O)cc2)NC(=O)[C@H](Cc2c[nH]c3ccccc23)NC(=O)[C@@H]2CCCN2C(=O)[C@H](CCCCN)NC(=O)[C@H](C)NC(=O)[C@H](CCC(=O)O)NC1=O [solnatide, L-cysteine, L-cysteinylglycyl-L-glutaminyl-L-arginyl-L-α-glutamyl-L-threonyl-L-prolyl-L-α-glutamylglycyl-L-alanyl-L-α-glutamyl-L-alanyl-L-lysyl-L-prolyl-L-tryptophyl-L-tyrosyl-, cyclic (1→17)-disulfide]
Membrane abundance, solnatide 5 min [1]: 1.33 ± 0.07
Membrane abundance, solnatide 5 min ([2]; 5 min): 1.36 ± 0.11
Membrane abundance, solnatide 10 min ([2]; 10 min): 1.94 ± 0.08
Effect of solnatide on amiloride-sensitive current [3]: a residual albeit non-significant increase in the amiloride-sensitive current
Current increase, glycosylation sites removed ([3]; glycosylation sites in extracellular loop removed by mutation): small increase was not seen
Membrane abundance, solnatide [4]: significant statistically
Restoration of amiloride-sensitive currents [5]: restored to WT control levels; also recorded: restoring current levels in these mutant ENaC-expressing cells to WT levels or even higher
Efficacy in phase II clinical trials [6]: already proven in pathological conditions involving ENaC in phase II clinical trials
